# Experiments:
# [1] = Storage stability at 55° C. of dried lot 14 solid with added water or ethanol (Example 3, Table 3); assay type: physicochemical; details: 55° C. for a short period such as 24 hours
# Description: Three values are given in the tables for each azadirachtin level: The amount (in grams) of azadirachtin A is given before the slash. The amount of azadirachtin B (in grams) is given after the slash. The total azadirachtin amount is given in parentheses. Ka, Kb, and Kt refer to the first order decomposition rate constants (with units of 1/day) for azadirachtin A, azadirachtin B, and total azadirachtin, respectively.
# Dry solid azadirachtin was obtained by drying a solid azadirachtin sample from Lot 14 (014) in an oven at 55° C. for 24 hours in an unsealed vessel until the volatile content of the solid was less than 0.5%. The dried sample was then split into 6 subsamples. One dry subsample (014D) was used without further treatment. A second subsample (014W1) received 1% by weight of H2 O. A third subsample (014W4) received 4% by weight H2 O. Subsamples 4, 5 and 6 received 1, 3, and 5% by weight of ethanol, respectively and were designated 014E1, 014E3, and 014E5. The subsamples were placed in multiple tightly sealed vials at 55° C. Individual vials were removed periodically to assay for azadirachtin.
# [2] = tested on: various insect, mite, nematode, etc. orders; details: cited from earlier work
smiles,measurement,setting,value
C/C=C(\C)C(=O)O[C@H]1C[C@@H](OC(C)=O)[C@@]2(C(=O)OC)CO[C@H]3[C@@H](O)[C@@](C)([C@]45O[C@@]4(C)[C@H]4C[C@@H]5O[C@@H]5OC=C[C@@]54O)[C@H]4[C@]1(CO[C@]4(O)C(=O)OC)[C@@H]32 [azadirachtin],effect of heating upon azadirachtin stability,[1],little or no effect upon azadirachtin stability
same,biological activity (in words),[2],feeding inhibition and growth disruption
